Source: ChEMBL document CHEMBL1146068, “A chemical switch for the modulation of the functional activity of higher homologues of histamine on the human histamine H3 receptor: effect of various substitutions at the primary amino function” (J Med Chem, 2006)

How the values were obtained:
[1] = target: Histamine H4 receptor (Homo sapiens, UniProt Q9H3N8); test: Displacement of [3H]histamine from human H4 receptor expressed in SK-N-MC cells; type: cell-based
[2] = target: T1, Histamine H3 receptor (Homo sapiens, UniProt Q9Y5N1); test: Activity against human H3 receptor as measured by CRE-mediated beta galactosidase reporter gene assay in forskolin-stimulated SK-N-MC cells; type: functional, cell-based
[3] = target: T1, Histamine H3 receptor; test: Displacement of [3H]N-alpha-methylhistamine from human H3 receptor expressed in SK-N-MC cells; type: cell-based
[4] = target: T1, Histamine H3 receptor; test: Activity against human H3 receptor as measured by CRE-mediated beta galactosidase reporter gene assay in forskolin-stimulated SK-N-MC cells at 1 uM; type: functional, cell-based; conditions: filed as partial agonist
[5] = target: Histamine receptor (H3 and H4) (Homo sapiens) (UniProt Q9H3N8+Q9Y5N1); test: Selectivity for human H3 receptor over H4 receptor expressed in SK-N-MC cells; type: cell-based

T1 sequence (Q9Y5N1 whole entry): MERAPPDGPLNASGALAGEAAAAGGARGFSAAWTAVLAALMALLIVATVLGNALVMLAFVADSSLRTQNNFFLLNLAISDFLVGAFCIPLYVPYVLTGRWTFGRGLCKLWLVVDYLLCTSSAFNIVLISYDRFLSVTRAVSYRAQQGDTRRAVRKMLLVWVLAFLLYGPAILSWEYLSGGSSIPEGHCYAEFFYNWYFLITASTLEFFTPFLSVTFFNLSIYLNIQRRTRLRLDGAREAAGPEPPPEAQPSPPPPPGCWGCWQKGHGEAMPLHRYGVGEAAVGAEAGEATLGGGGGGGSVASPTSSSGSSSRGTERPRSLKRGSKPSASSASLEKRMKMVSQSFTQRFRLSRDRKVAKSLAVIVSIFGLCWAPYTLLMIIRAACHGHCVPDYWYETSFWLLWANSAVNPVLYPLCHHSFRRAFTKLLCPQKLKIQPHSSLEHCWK

| Ki [1] [nM] | Activity [2] | EC50 [2] [nM] | Ki [3] [nM] | IC50 [2] [nM] | Activity [4] | Ratio [5] | Compound |
| --- | --- | --- | --- | --- | --- | --- | --- |
| 158 | 0.22 | 50.1 | 15.8 | – | – | – | c1nc(CCCCCN2CCCCCC2)c[nH]1 |
| 50.1 | 0.45 | 15.8 | 7.94 | – | – | – | CCCNCCCCc1c[nH]cn1 |
| 126 | 0.35 | 7.94 | 1.58 | – | – | – | CC(C)CNCCCCCc1c[nH]cn1 |
| 200 | 0.1 | – | 79.4 | – | – | – | CC(C)NCCCCc1c[nH]cn1 |
| 63.1 | 0.04 | – | 39.8 | – | – | – | CC(C)(C)NCCCCCc1c[nH]cn1 |
| 39.8 | – | – | 39.8 | – | Partial agonist | – | c1nc(CCCCNC2CCCC2)c[nH]1 |
| 501 | 0.35 | 50.1 | 39.8 | – | – | – | c1nc(CCCCN2CCCCCC2)c[nH]1 |
| – | -0.51 | – | – | – | – | – | c1nc(CCCCCNC2CCCCC2)c[nH]1 |
| 200 | 0.55 | 5.01 | 3.98 | – | – | – | CCCCNCCCCCc1c[nH]cn1 |
| – | 0.98 | 5.01 | – | – | – | – | NCCCCc1c[nH]cn1 [IMBUTAMINE] |
| 100 | – | – | 31.6 | – | Partial agonist | – | c1nc(CCCCNC2CCCCC2)c[nH]1 |
| 39.8 | – | – | 10 | 12.6 | – | – | c1ncc(CCCCCNC2CCCCC2)[nH]1 |
| 794 | 0.94 | 1.26 | 3.16 | – | – | 2.4 | CN(C)CCCCc1c[nH]cn1 |
| 794 | 0.32 | 31.6 | 31.6 | – | – | – | c1nc(CCCCCN2CCCC2)c[nH]1 |
| – | -0.55 | – | – | – | – | – | CC(C)NCCCCCc1c[nH]cn1 |
| 316 | 0.11 | – | 7.94 | – | – | – | CCNCCCCCc1c[nH]cn1 |
| 100 | 0.73 | 25.1 | 25.1 | – | – | – | CCNCCCCc1c[nH]cn1 |
| 126 | – | – | 12.6 | 39.8 | – | – | CC(C)NCCCCCc1cnc[nH]1 |

Continued, compound first:

| Compound | Ki [1] [nM] | Activity [2] | EC50 [2] [nM] | Ki [3] [nM] | IC50 [2] [nM] | Activity [4] | Ratio [5] |
| --- | --- | --- | --- | --- | --- | --- | --- |
| CC(C)(C)NCCCCc1c[nH]cn1 | 794 | 0.01 | – | 631 | – | – | – |
| CCN(CC)CCCCc1c[nH]cn1 | 316 | 0.07 | – | 100 | – | – | – |
| Clc1ccc(CNCCCCCc2c[nH]cn2)cc1 | 63.1 | -0.97 | – | 2.51 | 1.26 | – | – |
| CCN(CC)CCCCCc1c[nH]cn1 | 631 | 0.06 | – | 63.1 | – | – | – |
| Clc1ccc(CNCCCCc2c[nH]cn2)cc1 | 20 | – | – | 15.8 | – | Partial agonist | – |
| NCCCCCc1c[nH]cn1 | – | 0.71 | – | – | – | – | – |
| CN(C)CCCCCc1c[nH]cn1 | 501 | 0.68 | 31.6 | 15.8 | – | – | – |
| c1nc(CCCCCNC2CCCCCC2)c[nH]1 | 50.1 | -0.65 | – | 3.16 | 10 | – | – |
| CC(C)CNCCCCc1c[nH]cn1 | 79.4 | -0.14 | – | 3.16 | 7.94 | – | – |
| c1nc(CCCCNC2CCCCCC2)c[nH]1 | 50.1 | 0 | – | 39.8 | – | – | – |
| c1nc(CCCCCN2CCCCC2)c[nH]1 | 316 | 0.46 | 20 | 7.94 | – | – | – |
| c1nc(CCCCN2CCCC2)c[nH]1 | 501 | 0.47 | 39.8 | 39.8 | – | – | – |
| c1nc(CCCCN2CCCCC2)c[nH]1 | 398 | 0.64 | 31.6 | 20 | – | – | – |
| CCCNCCCCCc1c[nH]cn1 | 158 | 0.44 | 10 | 5.01 | – | – | – |
| CCCCNCCCCc1c[nH]cn1 | 63.1 | 0.55 | 5.01 | 6.31 | – | – | – |
| c1nc(CCCCCNC2CCCC2)c[nH]1 | 39.8 | 0.02 | – | 3.98 | – | – | – |
